1 compound from patent US12397056B2, “System for inducing sonoporation of a drug into cancer cells and method thereof” (Freedom Waves S.R.L, priority 2018, dated 2025) can be followed below.

The experiment relates to human pancreatic adenocarcinoma cells. The experiment in a line: Internalization of fluoresceinamine (FA) into cancer cells (FIG. 7, CLSM). It is filed as cell-based. The text has this:
This example is relative to an experiment of internalization of a fluoresceinamine (FA). […] The tested experimental condition are: • FA-NO-US-NO DRUG: administration of FA alone, without administration of any drug and without administration of ultrasounds; • FA-LI-NO-US: administration of FA and liposomal irinotecan (LI), without administration of ultrasounds; • US-DC=12%: administration of FA and liposomal irinotecan (LI), with the simultaneous administration of pLINFUs with a duty cycle of 12%; • US-PRE-DC=1%: administration of pLINFUs with a duty cycle of 1% followed by subsequent administration of FA and liposomal irinotecan (LI); and • US-DC=1%: administration of FA and liposomal irinotecan (LI), with the simultaneous administration of pLINFUs with a duty cycle of 1%.
In FIG. 7, it is graphically represented the FA Internalization (%), i.e. the percentage of FA measured after the removal of the […] liquid from the cell culture wells, i.e. the percentage of FA inside the cell. The results of the experiment of this example were also analyzed by Confocal Laser Scanning Microscopy (CLSM) after 2 hours of incubation. FIGS. 8a, 8b, 8c, 8d, 8e show the intake of the FA into human pancreatic adenocarcinoma cells, in the five aforementioned experimental conditions.
It can be explained with a greater chemical interaction between the polymeric chains of polyethylene glycol of the liposomal membrane and the FA.

“Also recorded” adds a separate entry of the source.

Turning to `Nc1ccc2c(c1)C(=O)OC21c2ccc(O)cc2Oc2cc(O)ccc21` [FA, fluoresceinamine], the “intake of the FA into cells (CLSM)” value reads like this: (FA-LI-NO-US: FA with liposomal irinotecan, no ultrasound, FIG. 8b) “greater fluorescence density is observed, but only at an extracellular perimembrane level”; (FA-NO-US-NO DRUG: FA alone, no drug, no ultrasound, 2 hours incubation, FIG. 8a) “not accumulated in the cells”; (US-DC=1%: FA with liposomal irinotecan, simultaneous pLINFU duty cycle 1%, FIG. 8e) “highest level of FA internalization”; (US-DC=12%: FA with liposomal irinotecan, simultaneous pLINFU duty cycle 12%, FIG. 8c) “the presence of FA inside the cells became evident”; (US-PRE-DC=1%: pLINFU duty cycle 1% followed by FA and liposomal irinotecan, FIG. 8d) “the presence of FA inside the cells became evident; also recorded: a certain grade of FA internalization is achieved”. In addition, the “FA Internalization (%)” value (US-DC=1% compared with the other four conditions, FIG. 7) is “higher FA internalization %”.
